In patent publication US20120295907A1, “INSECTICIDAL COMPOUNDS” (SYNGENTA CROP PROTECTION, LLC, priority 2009, published 2012):

What was measured:
Assay type in all cases: in vivo
Spodoptera littoralis = Spodoptera littoralis (Egyptian Cotton Leafworm) cotton leaf disc spray test; conditions: foliar, 72 h, 200 ppm spray on cotton leaf discs, L1 larvae, mortality, feeding behavior, growth regulation 3 DAT
Heliothis virescens = Heliothis virescens (Tobacco Budworm) egg test on artificial diet; conditions: 96 h, 200 ppm (concentration in well 18 ppm), eggs 0-24 h old on artificial diet, 4 days, egg mortality, larval mortality, growth regulation
Plutella xylostella = Plutella xylostella (Diamond Back Moth) artificial diet MTP test; conditions: 144 h, 200 ppm (concentration in well 18 ppm), L2 larvae, 6 days, larval mortality, growth regulation
Diabrotica balteata = Diabrotica balteata (Corn Root Worm) artificial diet MTP test; conditions: 120 h, 200 ppm (concentration in well 18 ppm), L2 larvae, 5 days, larval mortality, growth regulation

SMILES | pest or weed control at 200 ppm (Spodoptera littoralis) | pest or weed control at 200 ppm (Heliothis virescens) | pest or weed control at 200 ppm (Plutella xylostella) | pest or weed control at 200 ppm (Diabrotica balteata)
COc1c(NC(=O)c2ccc(C)cc2Cl)cccc1C(=O)Nc1c(Cl)cc(C(F)(C(F)(F)F)C(F)(F)C(F)(F)F)cc1Br (stereo not shown) [B182] | ≥ 80% | ≥ 80% | ≥ 80% | –
COc1c(NC(=O)c2cccc(C)c2C)cccc1C(=O)Nc1c(C)cc(C(F)(C(F)(F)F)C(F)(F)C(F)(F)F)cc1C (stereo not shown) [F11] | – | – | ≥ 80% | –
COc1c(NC(=O)c2cc([N+](=O)[O-])ccc2F)cccc1C(=O)Nc1c(Cl)cc(C(F)(C(F)(F)F)C(F)(F)C(F)(F)F)cc1Br (stereo not shown) [B148] | ≥ 80% | ≥ 80% | ≥ 80% | –
COc1c(NC(=O)c2cc(Cl)cc(I)c2)cccc1C(=O)Nc1c(Cl)cc(C(F)(C(F)(F)F)C(F)(F)C(F)(F)F)cc1Br (stereo not shown) [B68] | ≥ 80% | ≥ 80% | – | –
COc1c(NC(=O)c2cc(Cl)ccc2F)cccc1C(=O)Nc1c(Cl)cc(C(F)(C(F)(F)F)C(F)(F)C(F)(F)F)cc1Br (stereo not shown) [B10] | ≥ 80% | ≥ 80% | ≥ 80% | –
COc1c(NC(=O)c2cc(Cl)cc(C(F)(F)F)c2)cccc1C(=O)Nc1c(Cl)cc(C(F)(C(F)(F)F)C(F)(F)C(F)(F)F)cc1Br (stereo not shown) [B70] | ≥ 80% | ≥ 80% | – | –
COc1c(NC(=O)c2cc(Cl)ccc2F)cccc1C(=O)Nc1c(Cl)cc(C(F)(C(F)(F)F)C(F)(F)C(F)(F)F)cc1Cl (stereo not shown) [C10] | ≥ 80% | ≥ 80% | – | ≥ 80%
COc1c(NC(=O)c2ncc(C(F)(F)F)cc2Cl)cccc1C(=O)Nc1c(Cl)cc(C(F)(C(F)(F)F)C(F)(F)C(F)(F)F)cc1Br (stereo not shown) [B141] | ≥ 80% | ≥ 80% | ≥ 80% | –
COc1c(NC(=O)c2cc(Cl)sc2Cl)cccc1C(=O)Nc1c(Cl)cc(C(F)(C(F)(F)F)C(F)(F)C(F)(F)F)cc1Br (stereo not shown) [B186] | ≥ 80% | – | – | –
COc1c(NC(=O)c2ccc(-c3csnn3)cc2)cccc1C(=O)Nc1c(Cl)cc(C(F)(C(F)(F)F)C(F)(F)C(F)(F)F)cc1Br (stereo not shown) [B31] | ≥ 80% | ≥ 80% | ≥ 80% | –
COc1c(NC(=O)c2ccco2)cccc1C(=O)Nc1c(C)cc(C(F)(C(F)(F)F)C(F)(F)C(F)(F)F)cc1C (stereo not shown) [F4] | ≥ 80% | ≥ 80% | ≥ 80% | –
COc1c(NC(=O)c2sccc2Br)cccc1C(=O)Nc1c(Cl)cc(C(F)(C(F)(F)F)C(F)(F)C(F)(F)F)cc1Br (stereo not shown) [B57] | – | – | ≥ 80% | –
COc1c(NC(=O)c2ccccc2OC(F)(F)F)cccc1C(=O)Nc1c(Cl)cc(C(F)(C(F)(F)F)C(F)(F)C(F)(F)F)cc1Cl (stereo not shown) [C16] | – | ≥ 80% | – | –
COc1c(NC(=O)c2sccc2C)cccc1C(=O)Nc1c(Cl)cc(C(F)(C(F)(F)F)C(F)(F)C(F)(F)F)cc1Br (stereo not shown) [B88] | ≥ 80% | ≥ 80% | ≥ 80% | –
COc1ccccc1C(=O)Nc1cccc(C(=O)Nc2c(Cl)cc(C(F)(C(F)(F)F)C(F)(F)C(F)(F)F)cc2Cl)c1OC (stereo not shown) [C17] | – | ≥ 80% | – | –
COc1ccccc1C(=O)Nc1cccc(C(=O)Nc2c(Cl)cc(C(F)(C(F)(F)F)C(F)(F)F)cc2Cl)c1OC [E15] | ≥ 80% | ≥ 80% | ≥ 80% | –
COc1c(NC(=O)c2cc(Cl)cc(Cl)c2O)cccc1C(=O)Nc1c(Cl)cc(C(F)(C(F)(F)F)C(F)(F)C(F)(F)F)cc1Br (stereo not shown) [B160] | – | – | ≥ 80% | –
COc1c(NC(=O)c2ccccc2OC(F)(F)F)cccc1C(=O)Nc1c(Cl)cc(C(F)(C(F)(F)F)C(F)(F)F)cc1Cl [E14] | ≥ 80% | ≥ 80% | ≥ 80% | –
COc1c(NC(=O)c2csc(Cl)c2OC)cccc1C(=O)Nc1c(Cl)cc(C(F)(C(F)(F)F)C(F)(F)C(F)(F)F)cc1Br (stereo not shown) [B147] | ≥ 80% | – | – | –
CCc1cc(C(F)(C(F)(F)F)C(F)(F)F)cc(C)c1NC(=O)c1cccc(NC(=O)c2ccc(C#N)cc2Cl)c1OC [J1] | – | – | ≥ 80% | ≥ 80%
COc1c(NC(=O)c2ccc(S(C)(=O)=O)c(OC)c2Cl)cccc1C(=O)Nc1c(Cl)cc(C(F)(C(F)(F)F)C(F)(F)C(F)(F)F)cc1Br (stereo not shown) [B114] | ≥ 80% | ≥ 80% | ≥ 80% | –
COCc1nc(C)c(C(=O)Nc2cccc(C(=O)Nc3c(Cl)cc(C(F)(C(F)(F)F)C(F)(F)C(F)(F)F)cc3Br)c2OC)s1 (stereo not shown) [B95] | ≥ 80% | ≥ 80% | ≥ 80% | –
COc1c(NC(=O)c2sc(Cl)nc2C)cccc1C(=O)Nc1c(Cl)cc(C(F)(C(F)(F)F)C(F)(F)C(F)(F)F)cc1Br (stereo not shown) [B105] | ≥ 80% | – | ≥ 80% | –

SMILES | pest or weed control at 200 ppm (Spodoptera littoralis) | pest or weed control at 200 ppm (Heliothis virescens) | pest or weed control at 200 ppm (Plutella xylostella) | pest or weed control at 200 ppm (Diabrotica balteata)
COc1c(NC(=O)c2ccccc2OC(F)(F)F)cccc1C(=O)Nc1c(Cl)cc(C(F)(C(F)(F)F)C(F)(F)C(F)(F)F)cc1Br (stereo not shown) [B16] | ≥ 80% | – | ≥ 80% | –
COc1c(NC(=O)c2csnn2)cccc1C(=O)Nc1c(Cl)cc(C(F)(C(F)(F)F)C(F)(F)C(F)(F)F)cc1Br (stereo not shown) [B39] | ≥ 80% | ≥ 80% | ≥ 80% | –
COc1c(NC(=O)c2ncc(Br)cn2)cccc1C(=O)Nc1c(Cl)cc(C(F)(C(F)(F)F)C(F)(F)C(F)(F)F)cc1Br (stereo not shown) [B187] | ≥ 80% | – | ≥ 80% | ≥ 80%
COc1c(NC(=O)c2c(C)nn(C)c2Cl)cccc1C(=O)Nc1c(Cl)cc(C(F)(C(F)(F)F)C(F)(F)C(F)(F)F)cc1Br (stereo not shown) [B142] | ≥ 80% | – | – | –
COc1c(NC(=O)c2cc(Cl)ccc2F)cccc1C(=O)Nc1c(C)cc(C(F)(C(F)(F)F)C(F)(F)C(F)(F)F)cc1C (stereo not shown) [F12] | ≥ 80% | ≥ 80% | – | ≥ 80%
COc1c(NC(=O)c2ccco2)cccc1C(=O)Nc1c(Cl)cc(C(F)(C(F)(F)F)C(F)(F)F)cc1Cl [E10] | ≥ 80% | ≥ 80% | ≥ 80% | –
COc1ccccc1C(=O)Nc1cccc(C(=O)Nc2c(Cl)cc(C(F)(C(F)(F)F)C(F)(F)C(F)(F)F)cc2Br)c1OC (stereo not shown) [B17] | ≥ 80% | ≥ 80% | – | –
COc1c(NC(=O)c2cn(C)nc2C(F)(F)F)cccc1C(=O)Nc1c(Cl)cc(C(F)(C(F)(F)F)C(F)(F)C(F)(F)F)cc1Br (stereo not shown) [B152] | ≥ 80% | ≥ 80% | ≥ 80% | –
COc1c(NC(=O)c2ccco2)cccc1C(=O)Nc1c(Cl)cc(C(F)(C(F)(F)F)C(F)(F)C(F)(F)F)cc1Br (stereo not shown) [B12] | ≥ 80% | ≥ 80% | ≥ 80% | –
COc1c(NC(=O)c2ccc(-c3ccccn3)s2)cccc1C(=O)Nc1c(Cl)cc(C(F)(C(F)(F)F)C(F)(F)C(F)(F)F)cc1Br (stereo not shown) [B48] | ≥ 80% | ≥ 80% | ≥ 80% | –
COc1c(NC(=O)c2cc(C(F)(F)F)ccc2F)cccc1C(=O)Nc1c(Cl)cc(C(F)(C(F)(F)F)C(F)(F)C(F)(F)F)cc1Br (stereo not shown) [B24] | ≥ 80% | – | – | –
COc1c(NC(=O)c2ccc([N+](=O)[O-])c(O)c2)cccc1C(=O)Nc1c(Cl)cc(C(F)(C(F)(F)F)C(F)(F)C(F)(F)F)cc1Br (stereo not shown) [B181] | – | – | – | ≥ 80%
COc1c(NC(=O)c2ccc(F)c([N+](=O)[O-])c2)cccc1C(=O)Nc1c(Cl)cc(C(F)(C(F)(F)F)C(F)(F)C(F)(F)F)cc1Br (stereo not shown) [B77] | ≥ 80% | ≥ 80% | ≥ 80% | –
COc1c(NC(=O)c2ncccc2C(F)(F)F)cccc1C(=O)Nc1c(Cl)cc(C(F)(C(F)(F)F)C(F)(F)C(F)(F)F)cc1Br (stereo not shown) [B188] | ≥ 80% | ≥ 80% | – | –
COc1c(NC(=O)c2ocnc2C)cccc1C(=O)Nc1c(Cl)cc(C(F)(C(F)(F)F)C(F)(F)C(F)(F)F)cc1Br (stereo not shown) [B94] | ≥ 80% | ≥ 80% | ≥ 80% | –
COc1c(NC(=O)c2c(C)noc2C)cccc1C(=O)Nc1c(Cl)cc(C(F)(C(F)(F)F)C(F)(F)C(F)(F)F)cc1Br (stereo not shown) [B157] | ≥ 80% | ≥ 80% | – | –
COc1c(NC(=O)c2cc([N+](=O)[O-])c(Cl)cc2F)cccc1C(=O)Nc1c(Cl)cc(C(F)(C(F)(F)F)C(F)(F)C(F)(F)F)cc1Br (stereo not shown) [B102] | ≥ 80% | ≥ 80% | ≥ 80% | –
COc1c(NC(=O)c2ccc(Cl)cc2F)cccc1C(=O)Nc1c(C)cc(C(F)(C(F)(F)F)C(F)(F)C(F)(F)F)cc1C (stereo not shown) [F13] | ≥ 80% | ≥ 80% | – | –
COc1c(NC(=O)c2ccccc2C)cccc1C(=O)Nc1c(C)cc(C(F)(C(F)(F)F)C(F)(F)C(F)(F)F)cc1C (stereo not shown) [F2] | ≥ 80% | ≥ 80% | ≥ 80% | –
CCc1cc(C(F)(C(F)(F)F)C(F)(F)C(F)(F)F)cc(C)c1NC(=O)c1cccc(NC(=O)c2ccc(Cl)s2)c1OC (stereo not shown) [A21] | ≥ 80% | ≥ 80% | ≥ 80% | –
COc1cccc(OC)c1C(=O)Nc1cccc(C(=O)Nc2c(Cl)cc(C(F)(C(F)(F)F)C(F)(F)C(F)(F)F)cc2Br)c1OC (stereo not shown) [B164] | – | – | ≥ 80% | –
COc1c(NC(=O)c2ncccn2)cccc1C(=O)Nc1c(Cl)cc(C(F)(C(F)(F)F)C(F)(F)C(F)(F)F)cc1Br (stereo not shown) [B71] | ≥ 80% | – | ≥ 80% | –
